We go through two compounds from patent publication US20230372357A1, “STABLE PHARMACEUTICAL COMPOSITION” (SANTEN PHARMACEUTICAL CO., LTD., priority 2020, published 2023).

For data set [1] the following is noted: intracameral injection; cited from earlier work.
The nature of data set [2]: Finding at development stage: compound dissolved as aqueous composition. It counts as physicochemical.

Structures are written as SMILES.

Consider `CCN(CC)CC1CCCCN1CC(=O)N1c2ccccc2C(=O)Nc2cccnc21` (stereo not drawn) [AFDX0116, 11-[2-[2-[(diethylamino)methyl]-1-piperidinyl]acetyl]-5,11-dihydro-6H-pyrido[2,3-b][1,4]benzodiazepin-6-one], for which the intraocular pressure entry in data set [1] is recorded as “decreased”.

On to `CCN(CC)C[C@H]1CCCCN1CC(=O)N1c2ccccc2C(=O)Nc2cccnc21` [AFDX0250, (+)-11-[2-[2-[(diethylamino)methyl]-1-piperidinyl]acetyl]-5,11-dihydro-6H-pyrido[2,3-b][1,4]benzodiazepin-6-one], for which, in data set [2] (dissolved and prepared in the form of an aqueous composition), the “hydrolysis of the compound in an aqueous composition” value was “susceptible to hydrolysis”. Moreover, the “degradation of the compound under light irradiation” value in data set [2] (under the light irradiation) was “easily degraded under the light irradiation”.
